Experimental data taken from paper PMC10816046, “The Interaction and Effect of a Small MitoBlock Library as Inhibitor of ALR Protein–Protein Interaction Pathway” (International Journal of Molecular Sciences, 2024).

What was measured:
ALR (SF-ALR) [1] = target: T1, ALR (SF-ALR) (Homo sapiens, UniProt P55789); assay: 1H-15N HSQC NMR titration (slow exchange); type: binding
T1 construct: gene GFER; SF-ALR, residues 81–205

ALR (SF-ALR) [2] = target: T1, ALR (SF-ALR); assay: 1H-15N HSQC NMR titration of […] SF-ALR (slow exchange); IC50 from Amplex Red-HRP assay with pure enzyme; type: biochemical

T1 sequence (P55789 81-205): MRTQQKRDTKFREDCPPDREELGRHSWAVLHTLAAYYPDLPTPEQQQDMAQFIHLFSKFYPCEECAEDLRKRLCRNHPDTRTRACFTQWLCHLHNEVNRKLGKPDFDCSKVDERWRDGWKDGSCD

Structure (SMILES)	1H-15N HSQC NMR titration (slow exchange) (ALR (SF-ALR) [1])	IC50 (ALR (SF-ALR) [2])
CN(c1ccc(C2=NN=C(NC3CC3)SC2)cc1)S(C)(=O)=O [MB-7]	perturbation on the HN signals in the 2D NMR spectra (ES-1, MB-5, MB-7, MB-8, and MB-13)	
CC(=O)Nc1cccc(-c2csc(Nc3ccc(C)cn3)n2)c1 [MB-8]		9.02 µM
Nc1ccc(N2CCN(C(=O)c3ccco3)CC2)cc1 [MB-13]		10.7 µM
